Measured values: patent US5266591A, “Ethanolamine benzoate compounds” (Adir et Compagnie, priority 1991, dated 1993)
Read-outs that look alike come from different tables or passages of the source.

Tests used:
[1] = test system: LDL (low-density lipoproteins); assay: In vitro LDL oxidation by copper; assay type: biochemical
Method: (§1) A comparative study between the product of Example 1 and the reference substances (benfluorex, dimethyl biguanide) with respect to in vitro LDL oxidation was carried out.

[2] = test system: esters of cholesterol; assay: Incorporation of oleate in the esters of cholesterol; assay type: cell-based; conditions: for inhibition at 10 µM: read-out: Incorporation of oleate in the esters of cholesterol
[3] = test system: 52-week-old male SDCD rats; assay: Chronic treatment per os of 52-week-old male SDCD rats (weight, insulinaemia, glycaemia, glucose tolerance, lipids); assay type: in vivo, rat; conditions: 14 days; for % weight change: 52-week-old male SDCD rats; for Basal insulinaemia % change / Cholesterol % change / Glucose tolerance K 10^-2 % change / Glycaemia % change / Triglyceride % change: vs control
Method: A. Study of the Effect of a Chronic Treatment Administered Per OS to 52-Week-Old Male SDCD Rats The tests are carried out on rats that have weight anomalies associated with hyperinsulism and hyperglyceridaemia. on the one hand the effect of a prolonged treatment with the product of Example 1 and the reference substances on those anomalies, and In this experiment, adult male SPRAGUE DAWLEY rats were used in groups of 5 to 12 animals. […]
a reduction in glucose tolerance, an increase in basal insulinaemia, and an increase in plasma lipids.
The housing (from 9 to 52 weeks) of these rats was effected in a chamber at a temperature regulated at from 21° to 22° C. which was subjected to a fixed cycle of light (from 7.30 to 19.30 hours) and darkness (from 19.30 to 7.30 hours). Their food consisted of a maintenance diet (UAR A 03); water and food were supplied "ad libitum", with the exception of the night-fasting preceding the tests, when the food was removed.
9 days before the beginning of the experiment (d-9), the rats are divided into groups by randomisation based on weight.
5 days before the beginning of the experiment (d-5) the rats are conditioned by administering a gum solution.
The first day of the experiment (d1), the products to be tested are administered to the rats at different doses twice per day. More precisely, the products are administered suspended in the gum between 9.00 and 10.00 hours and 16.00 and 17.00 hours for 14 days. The treated animals are weighed daily.
On day 15 the rats (fasted for 18 hours) are sacrificed by decapitation. The blood is immediately collected in a cupule. An amount (50 μl ) is transferred into 500 μl of uranyl acetate for determining the glycaemia. An amount of 3 ml is transferred into a tube containing a solution of heparin (30 μl per 1 ml of whole blood) and centrifuged to separate the plasma. Another amount of 300 μl is transferred to a tube containing 15 μl of a solution of EDTA/NaF for determining the lactates.

[4] = test system: LDL (low-density lipoproteins); assay: In vitro LDL oxidation by monocytes; assay type: cell-based; conditions: for In vitro LDL oxidation by monocytes, activity: at 10^-4 M
Method: as §1

[5] = test system: conscious dogs; assay: Hypotensive effect in conscious dogs (sphygmomanometer on the tail); assay type: in vivo; conditions: conscious dog, 5 mg/kg p.o., n = 4
Method: The arterial pressure was measured by external pressure band (sphygmomanometer) on the tail of the dog, before and after treatment with the product of Example 1 at a dose of 5 mg/kg p.o..

## CC(Cc1cccc(C(F)(F)F)c1)NCCOC(=O)c1ccccc1 (stereo not shown) [Benfluorex]
[1]; at 10^-4 M
  In vitro LDL oxidation by copper, activity: inactive
[2]; at 10^-5 M
  inhibition at 10 µM: 30%
[3]; 1 mg/kg x2 per day p.o.
  % weight change: -2%
  Basal insulinaemia % change: -10%
  Cholesterol % change: -20%
  Glucose tolerance K 10^-2 % change: +30%
  Glycaemia % change: -10%
  Triglyceride % change: -43%
[3]; 2.5 mg/kg x2 per day p.o.
  % weight change: -6%
  Basal insulinaemia % change: -16%
  Cholesterol % change: -30%
  Glucose tolerance K 10^-2 % change: +25%
  Glycaemia % change: -12%
  Triglyceride % change: -44%
[4]
  In vitro LDL oxidation by monocytes, activity: inactive

## CN(C)C(=N)NC(=N)N [Dimethyl biguanide]
[2]; at 10^-5 M
  Incorporation of oleate in the esters of cholesterol: inactive
[4]
  In vitro LDL oxidation by monocytes, activity: inactive

## C[C@@H](Cc1cccc(C(F)(F)F)c1)NCCOC(=O)c1ccc(CCNC(=O)CC(c2ccccc2)c2ccccc2)cc1 [Example 1, (S)-1-(m-trifluoromethylphenyl)-2-{β-{4-[2-(N-(3,3-diphenylpropionyl)amino)ethyl]benzoyloxy}ethylamino}propane]
[1]
  IC50: 50 µM
[2]
  inhibition at 10 µM: 70%
[3]; 1 mg/kg x2 per day p.o.
  % weight change: -1.4%
  Basal insulinaemia % change: -15%
  Cholesterol % change: 0%
  Glucose tolerance K 10^-2 % change: +23%
  Glycaemia % change: +8%
  Triglyceride % change: -10%
[3]; 2.5 mg/kg x2 per day p.o.
  % weight change: -3%
  Basal insulinaemia % change: -26%
  Cholesterol % change: 0%
  Glucose tolerance K 10^-2 % change: +30%
  Glycaemia % change: 0%
  Triglyceride % change: -20%
[5]
  Decrease in arterial pressure, diastolic AP: -20 to -27 mmHg
  Decrease in arterial pressure, systolic AP: -15 to -22 mmHg
[4]; read-out: In vitro LDL oxidation by monocytes, IC50
  IC50: 50 µM
